Measured values as given in ChEMBL document CHEMBL5143671, “Discovery of (R)-(3-fluoropyrrolidin-1-yl)(6-((5-(trifluoromethyl)pyridin-2-yl)oxy)quinolin-2-yl)methanone (ABBV-318) and analogs as small molecule Nav1.7/ Nav1.8 blockers for the treatment of pain” (Bioorg Med Chem, 2022).
≈ marks a conversion by molar mass, not a printed value.

Columns and labels:
[1] = Drug concentration in plasma of monoiodoacetate-induced chronic Sprague-Dawley rat model of osteoarthritis at 0.3 mg/kg, po administered twice daily for 5 days; assay type: ADME, organism-based; details: time 5 day
[2] = Drug concentration in plasma of monoiodoacetate-induced chronic Sprague-Dawley rat model of osteoarthritis at 1 mg/kg, po administered twice daily for 5 days; assay type: ADME, organism-based; details: time 5 day
[3] = Drug concentration in plasma of monoiodoacetate-induced acute Sprague-Dawley rat model of osteoarthritis at 10 mg/kg, po administered for 5 days and measured after 15 mins; assay type: ADME, organism-based; details: time 5 day
in vivo [4] = details: Sprague-Dawley, rat, po
Rattus norvegicus [5] = organism: Rattus norvegicus; assay: cells; details: Sprague-Dawley
[6] = Drug concentration in brain of monoiodoacetate-induced chronic Sprague-Dawley rat model of osteoarthritis at 0.3 mg/kg, po administered twice daily for 5 days; assay type: ADME, organism-based; details: time 5 day, read-out: Ct
[7] = Drug concentration in brain of monoiodoacetate-induced chronic Sprague-Dawley rat model of osteoarthritis at 1 mg/kg, po administered twice daily for 5 days; assay type: ADME, organism-based; details: time 5 day, read-out: Ct
[8] = Cardiotoxicity in anesthetized rat CV model assessed as effect on QRS complex upto 31 uM by ECG analysis; assay type: toxicity
physchem = details: phosphate buffer
[9] = Drug concentration in brain of monoiodoacetate-induced chronic Sprague-Dawley rat model of osteoarthritis at 10 mg/kg, po administered twice daily for 5 days; assay type: ADME, organism-based; details: time 5 day, read-out: Ct
[10] = molecular target: T1, Sodium channel protein type 9 subunit alpha (Homo sapiens, UniProt Q15858); assay: Inhibition of recombinant human Nav 1.7 expressed in HEK293F cells at […] holding potential by manual voltage clamp electrophysiology method; assay type: cell-based
[11] = Effect on locomotor activity in rat by locomotor assay; assay type: toxicity
[12] = Drug concentration in plasma of monoiodoacetate-induced chronic Sprague-Dawley rat model of osteoarthritis at 3 mg/kg, po administered twice daily for 5 days; assay type: ADME, organism-based; details: time 5 day
[13] = Drug concentration in brain of monoiodoacetate-induced acute Sprague-Dawley rat model of osteoarthritis at 10 mg/kg, po administered for 5 days and measured after 15 mins; assay type: ADME, organism-based; details: time 5 day, read-out: Ct
Rattus norvegicus [14] = organism: Rattus norvegicus; assay: animal or person; details: Sprague-Dawley
[15] = molecular target: T1, Sodium channel protein type 9 subunit alpha
[16] = Drug exposure in plasma of rat; assay type: ADME; details: in vivo
[17] = Drug concentration in plasma of monoiodoacetate-induced acute Sprague-Dawley rat model of osteoarthritis at 30 mg/kg, po administered for 5 days and measured after 15 mins; assay type: ADME, organism-based; details: time 5 day
[18] = Half-life in orally dosed dog; assay type: ADME, organism-based, Canis lupus familiaris; details: in vivo, route po
[19] = Drug concentration in plasma of monoiodoacetate-induced acute Sprague-Dawley rat model of osteoarthritis at 3 mg/kg, po administered for 5 days and measured after 15 mins; assay type: ADME, organism-based; details: time 5 day
[20] = Drug concentration in plasma of monoiodoacetate-induced chronic Sprague-Dawley rat model of osteoarthritis at 10 mg/kg, po administered twice daily for 5 days; assay type: ADME, organism-based; details: time 5 day
[21] = Inhibition of rat Nav 1.7 by FRET based membrane potential assay
Rattus norvegicus [22] = organism: Rattus norvegicus; assay: animal or person; details: Sprague-Dawley; remark: listed apart in the source
[23] = Ratio of free drug concentration in brain to plasma of rat; assay type: ADME, cell-free; details: brain and plasma
[24] = Drug concentration in plasma of monoiodoacetate-induced chronic Sprague-Dawley rat model of osteoarthritis at 0.3 mg/kg, po administered twice for 1 day; assay type: ADME, organism-based
[25] = Drug concentration in plasma of monoiodoacetate-induced chronic Sprague-Dawley rat model of osteoarthritis at 3 mg/kg, po administered twice for 1 day; assay type: ADME, organism-based
[26] = Volume of distribution at steady state in orally dosed monkey; assay type: ADME, organism-based, Macaca mulatta; details: rhesus monkey, in vivo, po
[27] = Oral bioavailability in monkey; assay type: ADME, organism-based, Macaca mulatta; details: rhesus monkey, in vivo
[28] = Drug concentration in rat plasma assessed as free fraction; assay type: ADME, cell-free
[29] = Drug concentration in plasma of monoiodoacetate-induced chronic Sprague-Dawley rat model of osteoarthritis at 1 mg/kg, po administered twice for 1 day; assay type: ADME, organism-based
[30] = Clearance in iv dosed dog; assay type: ADME, organism-based, Canis lupus familiaris; details: in vivo
[31] = Half-life in orally dosed monkey; assay type: ADME, organism-based, Macaca mulatta; details: rhesus monkey, in vivo; route po
[32] = Oral bioavailability in dog; assay type: ADME, organism-based, Canis lupus familiaris; details: in vivo
[33] = Drug concentration in brain of monoiodoacetate-induced acute Sprague-Dawley rat model of osteoarthritis at 30 mg/kg, po administered for 5 days and measured after 15 mins; assay type: ADME, organism-based; details: time 5 day, read-out: Ct
[34] = Cardiotoxicity in conscious dog CV model assessed as effect on QRS complex upto 47 uM by ECG analysis; assay type: toxicity, Canis lupus familiaris
[35] = Clearance in iv dosed monkey; assay type: ADME, organism-based, Macaca mulatta; details: rhesus monkey, in vivo
in vivo [36] = details: Sprague-Dawley, rat, po; remark: listed apart in the source
[37] = molecular target: Sodium channel protein type 5 subunit alpha (Homo sapiens, UniProt Q14524)
in vivo [38] = details: Sprague-Dawley, rat, iv
[39] = Effect on locomotor activity in rat by rotorod test; assay type: toxicity
[40] = Drug concentration in brain of monoiodoacetate-induced acute Sprague-Dawley rat model of osteoarthritis at 3 mg/kg, po administered for 5 days and measured after 15 mins; assay type: ADME, organism-based; details: time 5 day, read-out: Ct
[41] = Drug concentration in brain of monoiodoacetate-induced chronic Sprague-Dawley rat model of osteoarthritis at 3 mg/kg, po administered twice daily for 5 days; assay type: ADME, organism-based; details: time 5 day, read-out: Ct
[42] = rat, in vivo, po
[43] = Cardiotoxicity in anesthetized rat CV model assessed as effect on PR interval upto 31 uM by ECG analysis; assay type: toxicity
[44] = Drug concentration in plasma of monoiodoacetate-induced chronic Sprague-Dawley rat model of osteoarthritis at 10 mg/kg, po administered twice for 1 day; assay type: ADME, organism-based
[45] = Cardiotoxicity in conscious dog CV model assessed as effect on PR interval upto 47 uM by ECG analysis; assay type: toxicity, Canis lupus familiaris
[46] = Volume of distribution at steady state in orally dosed dog; assay type: ADME, organism-based, Canis lupus familiaris; details: in vivo, po
[47] = Drug concentration in rat brain assessed as free fraction; assay type: ADME, tissue-based
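Wherever solubility is given: determined using a high-throughput solubility method.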

T1 sequence (Q15858 whole entry, looked up): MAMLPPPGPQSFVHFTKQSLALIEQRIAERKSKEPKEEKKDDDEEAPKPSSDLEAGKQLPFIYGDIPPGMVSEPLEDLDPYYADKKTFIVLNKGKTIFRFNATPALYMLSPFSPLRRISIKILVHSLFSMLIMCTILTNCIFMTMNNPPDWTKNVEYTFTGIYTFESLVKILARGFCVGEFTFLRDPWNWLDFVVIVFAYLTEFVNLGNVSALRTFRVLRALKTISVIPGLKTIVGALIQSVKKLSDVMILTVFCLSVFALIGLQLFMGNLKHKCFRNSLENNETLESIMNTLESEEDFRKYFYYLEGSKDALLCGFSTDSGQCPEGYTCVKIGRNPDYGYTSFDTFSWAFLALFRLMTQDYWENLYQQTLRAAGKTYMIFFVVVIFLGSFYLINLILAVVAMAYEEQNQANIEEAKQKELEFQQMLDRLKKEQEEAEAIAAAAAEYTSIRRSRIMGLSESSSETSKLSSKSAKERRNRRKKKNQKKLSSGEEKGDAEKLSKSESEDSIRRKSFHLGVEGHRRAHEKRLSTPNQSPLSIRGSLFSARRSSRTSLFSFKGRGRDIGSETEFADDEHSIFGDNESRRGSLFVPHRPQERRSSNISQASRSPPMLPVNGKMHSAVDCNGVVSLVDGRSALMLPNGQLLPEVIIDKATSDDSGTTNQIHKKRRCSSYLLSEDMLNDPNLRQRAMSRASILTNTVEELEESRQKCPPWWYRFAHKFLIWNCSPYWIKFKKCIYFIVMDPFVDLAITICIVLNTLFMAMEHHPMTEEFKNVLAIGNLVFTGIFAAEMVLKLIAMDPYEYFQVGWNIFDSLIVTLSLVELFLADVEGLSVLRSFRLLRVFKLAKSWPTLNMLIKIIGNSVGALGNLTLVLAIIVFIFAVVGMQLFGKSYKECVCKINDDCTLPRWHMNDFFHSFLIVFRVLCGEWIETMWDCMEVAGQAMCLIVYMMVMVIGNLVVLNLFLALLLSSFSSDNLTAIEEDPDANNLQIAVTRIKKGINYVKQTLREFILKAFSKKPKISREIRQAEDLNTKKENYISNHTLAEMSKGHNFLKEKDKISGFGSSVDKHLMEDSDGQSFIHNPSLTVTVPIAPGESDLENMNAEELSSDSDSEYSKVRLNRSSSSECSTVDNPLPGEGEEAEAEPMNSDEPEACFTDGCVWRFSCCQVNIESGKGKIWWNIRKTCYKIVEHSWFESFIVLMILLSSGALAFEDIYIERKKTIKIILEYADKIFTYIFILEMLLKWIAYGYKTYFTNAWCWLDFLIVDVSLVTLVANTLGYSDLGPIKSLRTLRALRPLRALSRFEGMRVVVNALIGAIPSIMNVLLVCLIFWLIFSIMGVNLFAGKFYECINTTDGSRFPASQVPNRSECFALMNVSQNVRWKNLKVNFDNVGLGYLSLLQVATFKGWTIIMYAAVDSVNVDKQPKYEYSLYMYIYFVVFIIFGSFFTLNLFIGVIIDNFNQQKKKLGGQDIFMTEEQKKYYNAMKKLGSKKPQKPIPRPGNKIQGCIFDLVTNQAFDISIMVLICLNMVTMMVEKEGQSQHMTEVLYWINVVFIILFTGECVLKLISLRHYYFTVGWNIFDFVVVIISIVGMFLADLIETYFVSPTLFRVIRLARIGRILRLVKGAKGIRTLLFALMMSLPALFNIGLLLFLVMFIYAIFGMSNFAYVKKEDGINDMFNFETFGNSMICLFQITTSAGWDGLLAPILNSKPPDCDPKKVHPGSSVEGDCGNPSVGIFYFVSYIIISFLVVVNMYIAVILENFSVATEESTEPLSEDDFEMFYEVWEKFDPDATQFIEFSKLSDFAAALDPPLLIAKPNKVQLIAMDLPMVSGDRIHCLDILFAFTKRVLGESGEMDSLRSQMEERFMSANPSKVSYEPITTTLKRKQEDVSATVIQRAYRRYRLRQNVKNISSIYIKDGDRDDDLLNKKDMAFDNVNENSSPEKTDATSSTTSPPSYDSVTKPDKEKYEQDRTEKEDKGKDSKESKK
Sodium channel protein type 5 subunit alpha, sequence (Q14524 whole entry): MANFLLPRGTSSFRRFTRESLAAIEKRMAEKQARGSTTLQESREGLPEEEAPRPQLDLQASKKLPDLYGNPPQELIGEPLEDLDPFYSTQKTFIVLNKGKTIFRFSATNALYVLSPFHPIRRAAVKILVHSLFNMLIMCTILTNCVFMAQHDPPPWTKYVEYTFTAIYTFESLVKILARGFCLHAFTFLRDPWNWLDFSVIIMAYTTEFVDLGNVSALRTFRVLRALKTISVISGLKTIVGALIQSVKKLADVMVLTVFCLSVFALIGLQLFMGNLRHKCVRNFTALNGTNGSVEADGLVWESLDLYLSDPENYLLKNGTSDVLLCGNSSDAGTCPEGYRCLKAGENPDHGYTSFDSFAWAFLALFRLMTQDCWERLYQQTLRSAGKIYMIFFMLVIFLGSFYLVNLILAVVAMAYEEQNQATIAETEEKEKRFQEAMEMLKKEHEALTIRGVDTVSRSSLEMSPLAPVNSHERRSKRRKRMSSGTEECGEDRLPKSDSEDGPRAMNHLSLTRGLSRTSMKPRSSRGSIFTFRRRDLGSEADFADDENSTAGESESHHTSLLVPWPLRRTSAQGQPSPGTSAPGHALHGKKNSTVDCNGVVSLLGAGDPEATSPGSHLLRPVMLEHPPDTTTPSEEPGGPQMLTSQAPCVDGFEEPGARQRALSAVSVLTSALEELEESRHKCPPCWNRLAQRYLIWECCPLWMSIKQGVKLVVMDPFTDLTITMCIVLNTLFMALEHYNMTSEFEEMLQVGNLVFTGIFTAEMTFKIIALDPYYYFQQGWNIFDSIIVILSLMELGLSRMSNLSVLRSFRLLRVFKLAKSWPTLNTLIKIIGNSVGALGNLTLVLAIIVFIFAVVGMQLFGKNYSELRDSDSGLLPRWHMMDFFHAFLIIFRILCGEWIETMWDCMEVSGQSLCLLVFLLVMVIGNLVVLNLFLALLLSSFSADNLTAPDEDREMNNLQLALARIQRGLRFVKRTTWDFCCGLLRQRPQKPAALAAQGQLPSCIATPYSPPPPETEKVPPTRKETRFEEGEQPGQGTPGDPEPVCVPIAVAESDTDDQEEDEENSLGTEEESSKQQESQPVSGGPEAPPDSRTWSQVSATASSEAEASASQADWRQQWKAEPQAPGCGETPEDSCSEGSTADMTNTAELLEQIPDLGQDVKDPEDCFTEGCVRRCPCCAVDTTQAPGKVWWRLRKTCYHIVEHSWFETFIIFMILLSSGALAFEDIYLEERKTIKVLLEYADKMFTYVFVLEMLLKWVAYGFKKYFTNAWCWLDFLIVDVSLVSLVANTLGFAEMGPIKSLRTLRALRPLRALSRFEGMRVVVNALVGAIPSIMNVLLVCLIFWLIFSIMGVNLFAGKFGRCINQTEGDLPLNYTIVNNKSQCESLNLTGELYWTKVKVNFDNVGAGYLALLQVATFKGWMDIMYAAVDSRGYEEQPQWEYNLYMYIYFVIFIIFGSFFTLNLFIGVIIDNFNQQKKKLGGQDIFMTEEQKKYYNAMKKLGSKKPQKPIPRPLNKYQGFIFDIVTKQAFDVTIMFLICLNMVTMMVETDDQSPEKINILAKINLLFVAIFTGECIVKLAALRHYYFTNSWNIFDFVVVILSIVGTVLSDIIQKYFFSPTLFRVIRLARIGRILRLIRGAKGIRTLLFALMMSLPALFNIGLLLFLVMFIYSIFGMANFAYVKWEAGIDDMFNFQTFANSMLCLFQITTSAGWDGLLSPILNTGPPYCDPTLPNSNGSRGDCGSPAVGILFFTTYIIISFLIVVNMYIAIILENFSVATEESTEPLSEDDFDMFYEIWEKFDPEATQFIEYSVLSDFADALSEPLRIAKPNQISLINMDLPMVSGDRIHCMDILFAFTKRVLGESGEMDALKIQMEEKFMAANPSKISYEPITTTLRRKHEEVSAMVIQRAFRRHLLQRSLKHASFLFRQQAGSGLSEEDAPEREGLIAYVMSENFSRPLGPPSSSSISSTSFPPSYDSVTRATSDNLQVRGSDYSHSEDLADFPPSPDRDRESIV

- concentration at 120 h [1]: 140 ng/mL
- concentration at 120 h [2]: 480 ng/mL
- concentration at 120 h [3]: 5180 ng/mL
- bioavailability (in vivo [4]): 80%
- EC50 (Rattus norvegicus [5]): 4 µg/mL (≈ 9.87 µM)
- concentration at 120 h [6]: 110 ng/mL
- concentration at 120 h [7]: 260 ng/mL
- solubility (physchem): 84 µM (≈ 34 µg/mL)
- concentration at 120 h [9]: 4230 ng/mL
- IC50 [10]: 1.1 µM
- concentration at 120 h [12]: 1480 ng/mL
- concentration at 120 h [13]: 5240 ng/mL
- EC50 (Rattus norvegicus [14]): 0.24 µg/mL (≈ 0.592 µM)
- IC50 [15]: 3.14 µM
- Cp [16]: 11200 ng/mL
- concentration at 120 h [17]: 10000 ng/mL
- half-life [18]: 13.4 h
- concentration at 120 h [19]: 1410 ng/mL
- concentration at 120 h [20]: 5480 ng/mL
- IC50 [21]: 2.86 µM
- EC50 (Rattus norvegicus [22]): 1.4 µg/mL (≈ 3.45 µM)
- Kp uu [23]: 0.29
- concentration at 24 h [24]: 70 ng/mL
- concentration at 24 h [25]: 750 ng/mL
- Vdss [26]: 3.6 L/kg
- bioavailability [27]: 110%
- fraction unbound [28]: 0.05
- concentration at 24 h [29]: 270 ng/mL
- clearance [30]: 5 mL/min/kg
- half-life [31]: 7.6 h
- bioavailability [32]: 85%
- concentration at 120 h [33]: 10800 ng/mL
- clearance [35]: 5 mL/min/kg
- half-life (in vivo [36]): 5.44 h
- clearance (in vivo [38]): 7.17 mL/min/kg
- concentration at 120 h [40]: 1530 ng/mL
- concentration at 120 h [41]: 1140 ng/mL
- Vdss [42]: 4.06 L/kg
- concentration at 24 h [44]: 3440 ng/mL
- Vdss [46]: 4.1 L/kg
- fraction unbound [47]: 0.015
Structure (SMILES): O=C(c1ccc2cc(Oc3ccc(C(F)(F)F)cn3)ccc2n1)N1CC[C@@H](F)C1
- Activity [8]: Non-Toxic
- Activity [11]: Non-Toxic
- Activity [34]: Non-Toxic
- IC50 [37]: 33 µM
- Activity [39]: Non-Toxic
- Activity [43]: Non-Toxic
- Activity [45]: Non-Toxic
